Source: patent publication US20170029388A1, “Treatment of Neurodegenerative Diseases with Asparagine Endopeptidase (AEP) Inhibitors and Compositions Related Thereto” (INTERCONTINENTAL GREAT BRANDS LLC, priority 2014, published 2017)

Legend:
[1] = biological target: T1, AEP in human B lymphoblastoid Pala cells (Homo sapiens, UniProt Q99538); assay: IC50 assays in intact Pala cells; assay type: cell-based; settings: 2 hr incubation, residual AEP activity in lysate
T1 construct: human B lymphoblastoid pala cells, which are rich in endogenous AEP; endogenous in cells; host or cells: Pala cells (human B lymphoblastoid)
Method: The cells were incubated with inhibitors for 2 hrs then cells washed, harvested and lysed and the residual enzymatic activity was determined. Lysate was normalized by Bradford assay and the experiment was performed in triplicate and the mean results and SEM were plotted.
In an attempt to assess the activity of the compounds in intact cells, the compounds were incubated with human B lymphoblastoid pala cells, which are rich in endogenous AEP and have been used for inhibiting AEP in cellular assay.
Human B Lymphoblastoid Pala cells, which express high concentrations of AEP, were cultured in RPMI-1640, supplemented with 10% FBS, 2 mM L-Glutamine, 100 units/mL Penicillin, 100 μg/mL Streptomycin. Various concentrations of each compound were incubated with the Pala cells for 2 hr at 37° C. Cells were collected, washed twice with PBS and lysed in Lysis Buffer (20 mM Citric Acid, 60 mM Disodium Hydrogen Orthophosphate, 1 mM EDTA, 0.1% CHAPS, pH 5.8). The protein concentrations were normalized by Bradford assay and lysates were assayed with 5 μ,M Cbz-Ala-Ala-Asn-AMC. […] Data were analyzed with GraFit version 5.0.11 software package.

AEP = biological target: T2, AEP (Homo sapiens, UniProt Q99538); assay: DTT reversibility assay; assay type: biochemical; settings: 5x IC50 of compound, 10 mM DTT or L-cysteine
T2 construct: tested with purified active AEP, IC50 values for the top 8 candidates were found; purchased Sino Biological
T2 sequence (Q99538 18-323 limits assumed): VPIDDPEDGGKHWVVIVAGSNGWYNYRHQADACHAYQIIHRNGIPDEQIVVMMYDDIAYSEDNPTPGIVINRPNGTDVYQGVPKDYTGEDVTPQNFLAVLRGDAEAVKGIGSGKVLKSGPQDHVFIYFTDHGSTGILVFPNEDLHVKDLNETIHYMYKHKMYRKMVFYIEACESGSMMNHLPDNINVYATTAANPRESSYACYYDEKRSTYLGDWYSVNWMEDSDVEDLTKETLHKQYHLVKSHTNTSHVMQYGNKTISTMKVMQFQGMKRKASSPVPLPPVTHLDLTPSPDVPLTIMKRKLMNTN
Method: AEP was reacted with specified inhibitor, after 15 min 10 mM DTT or L-cysteine was added to the reaction and the fluorescent signal was read for an additional 15 min. At the end of the second 15 min incubation, the percentage of product formed in the presence of each compound was determined in comparison to the DMSO control reaction.
Although it is not intended that embodiments of this disclosure be limited by any particular mechanism, to gain additional insight into the mechanism utilized by the inhibitors for abrogation of AEP activity, their reversibility in the presence of free thiols was determined. The addition of a strong reducing agent, such as DTT, or a weaker reducing agent, L-cysteine, to an inhibited reaction can be used to out-compete the inhibitory agent and restore catalytic activity to an enzyme with an active-site thiol residue. Here, a similar approach was used by adding a reducing agent, either DTT or L-cysteine, to a reaction, in which AEP had been incubated with a specified inhibitor, in an attempt to reverse the effects of the inhibitor. […] For compounds BB1 and 38, this increase in enzymatic activity may be due to the reduction of a disulfide linkage between the inhibitor and the enzyme, since these compounds contain thiols. Compound 10 contains a thiocyanate and may undergo nucleophilic attack by the enzyme's active-site thiolate to form a thioimidate enzyme-inhibitor complex. Under acidic conditions, this complex is reducible by either a strong reducing agent, such as DTT, or the weaker L-cysteine.
Simultaneously, 10 mM (final concentration) dithiothreitol (DTT) or L-cysteine was added to each reaction and incubated for an additional 15 min. At the end of the second 15 min incubation time, the fluorescence was measured for each sample. The amount of product formed in the presence of DMSO was used to determine the percentage of AEP activity in the presence of each drug.

[2] = tested on: cleavage of the amyloid precursor protein (APP); assay: OGD in primary cortical neurons, APP cleavage (immunoblot); assay type: cell-based
Method: A. AEP activity, measured in primary neuronal cultures with 5 μM Cbz-Ala-Ala-Asn-AMC (x-axis denotes neurons were treated with 0.1 μM or 1.0 μM specified compound). B. Caspase activity, measured in primary neuronal cultures with 5 μM Ac-Asp-Glu-Val-Asp-AMC. C. Cathepsin activity, measured in primary neuronal cultures with 5 μM D-Val-Leu-Lys-AMC. D. Inhibition of APP cleavage. Lysates of primary cortical neurons pre-incubated with compounds for 30 min, underwent OGD for 4 hrs, were reperfused for 18 hrs (normoxia neurons remained at normoxic conditions). E. APP can be cleaved in a dose-dependent manner. Lysates of primary cortical neurons pre-incubated with compounds for 30 min, underwent OGD for 4 hrs, were reperfused for 18 hrs (normoxia neurons remained at normoxic conditions).
Depriving cells of oxygen and glucose is a cellular model that is employed to trigger acidosis in cultured cells. The efficacy of the compounds in a cellular model of oxygen-glucose deprivation (OGD) was determined in an effort to mimic the effects of stroke in primary cultured neurons. As a result of depriving neurons of oxygen and glucose-containing medium, AEP activity was doubled (FIG. 7A, ‘DMSO-Norm’ compared to ‘DMSO-OGD’), while Caspase-3 and Cathepsin activities remained relatively unchanged. […] Cleavage of APP is observed in response to only DMSO treatment (FIG. 7D, lane 2), and it appears that upon the treatment of 1 μM of compounds 10, 11, and 12, and just 0.1 μM of compounds 31, 38 and 64, the cleavage was blocked, presumably due to AEP inhibition.
Compounds were pre-incubated with primary culture neurons, DIV13, for 30 min. The medium was exchanged for glucose-free DMEM and neurons were de-gased and incubated at 37° C., 95% N2/5% CO2 for 4 hrs with compounds. The medium was exchanged for DMEM and supplemented with compounds, then neurons were reperfused for 18 hrs under normoxic conditions. The neuronal lysates were prepared for AEP, Caspase-3 and Cathepsin assays. Moreover, immunoblotting analysis was conducted with the neuronal lysates using anti-APP, anti-AEP antibodies.

CYP3A = assay: CYP inhibition screening, CYP3A-Testosterone; assay type: in vitro ADME
[3] = PAMPA
CYP2C19 = CYP2C19 (Homo sapiens, UniProt P33261); assay: CYP inhibition screening, CYP2C19; assay type: in vitro ADME
CYP1A2 = biological target: T3, CYP1A2 (Homo sapiens, UniProt P05177); assay: CYP inhibition screening, CYP1A2; assay type: in vitro ADME
T3 sequence (P05177 1-516): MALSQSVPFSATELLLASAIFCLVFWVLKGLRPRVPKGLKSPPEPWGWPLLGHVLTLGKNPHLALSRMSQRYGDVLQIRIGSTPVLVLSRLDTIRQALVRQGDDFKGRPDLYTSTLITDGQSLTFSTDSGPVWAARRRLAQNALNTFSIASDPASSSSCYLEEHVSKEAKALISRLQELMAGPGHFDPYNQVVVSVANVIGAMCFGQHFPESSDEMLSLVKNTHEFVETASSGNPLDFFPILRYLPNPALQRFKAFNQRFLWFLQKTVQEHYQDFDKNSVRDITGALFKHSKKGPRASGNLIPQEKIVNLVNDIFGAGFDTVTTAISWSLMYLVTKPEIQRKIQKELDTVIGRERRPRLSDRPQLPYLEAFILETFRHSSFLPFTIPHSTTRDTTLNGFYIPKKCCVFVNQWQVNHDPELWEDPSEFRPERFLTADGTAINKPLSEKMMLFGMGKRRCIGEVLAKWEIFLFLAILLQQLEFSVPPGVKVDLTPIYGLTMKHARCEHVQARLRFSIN

CYP3A4 = CYP3A4 (Homo sapiens, UniProt P08684); assay: CYP inhibition screening, CYP3A4-Midazolam; assay type: in vitro ADME
CYP2C9 = CYP2C9 (Homo sapiens, UniProt P11712); assay: CYP inhibition screening, CYP2C9; assay type: in vitro ADME
[4] = Liver microsomal stability, mouse; settings: mouse liver microsomes
Caco-2 monolayer = Caco-2 monolayer permeability screen; assay type: in vitro ADME
Method: To explore the in vitro ADME profiles of the compounds, additional tests were conducted.

CYP2D6 = CYP2D6 (Homo sapiens, UniProt P10635); assay: CYP inhibition screening, CYP2D6; assay type: in vitro ADME
[5] = Liver microsomal stability, human; settings: human liver microsomes
Caspase-3 = biological target: T4, Caspase-3 (Homo sapiens, UniProt P42574); assay: Caspase-3 enzymatic assay (specificity); assay type: biochemical
T4 construct: purchased Millipore
Method: (§1) Purified recombinant enzyme was incubated with various concentrations of inhibitor in appropriate assay buffers in the presence of increasing concentrations of inhibitor. The formation of fluorescent product was monitored in duplicate reactions and the data was fit to appropriate equations to calculate the IC50 values.
(§2) To identify small-molecule inhibitors of AEP, a high-throughput screen was designed in conjunction with the Emory Chemical Biology Discovery Center. The screen incorporated mouse kidney lysates to assay a 54,384 compound library. […] Additional structural analysis and grouping allowed the compounds to be sorted into 8 distinct backbone families. […] The specificity of the compounds was also determined using four major cysteine proteases (FIG. 2).
(§3) Caspase-3 and 8 —The enzyme was pre-incubated with inhibitor in assay buffer (100 mM HEPES pH 7.4, 0.1% CHAPS, 10% Sucrose) for 10 min at 37° C. The reaction was initiated upon addition of 25 μM substrate (Ac-Asp-Glu-Val-Asp-AMC (Bachem)).

purified human AEP = biological target: T5, purified human AEP (Homo sapiens, UniProt Q99538); assay: AEP enzymatic assay with purified active enzyme (IC50); assay type: biochemical; settings: purified recombinant enzyme; read-out: IC50 toward AEP
T5 construct: tested with purified active AEP, IC50 values for the top 8 candidates were found; purchased Sino Biological
T5 sequence (Q99538 18-323 limits assumed): T2 sequence (Q99538 18-323 limits assumed)
Method: FIG. 1 illustrates a high-throughput screening scheme. […] The hits were validated further with purified human AEP, and promising compounds were categorized into 8 groups. Compounds from each group were tested and the cytotoxicity and specificity were determined.
as §1, §2
AEP—50 nM enzyme was pre-incubated with inhibitor in assay buffer (50 mM Sodium Citrate pH 5.5, 0.1% CHAPS, 60 mM Na2HPO4, 1 mM EDTA) for 10 min at 37° C. The reaction was initiated upon addition of 10 μM Cbz-Ala-Ala-Asn-AMC (Bachem)).

Caspase-8 = biological target: T6, Caspase-8 (Homo sapiens, UniProt Q14790); assay: Caspase-8 enzymatic assay (specificity); assay type: biochemical
T6 construct: purchased Millipore
Method: as §1, §2, §3

Cathepsin-S = biological target: T7, Cathepsin-S (Homo sapiens, UniProt P25774); assay: Cathepsin-S enzymatic assay (specificity); assay type: biochemical
T7 construct: purchased Athens Research and Technology
Method: as §1, §2
Cathepsin-S—100 nM enzyme was pre-incubated with inhibitor in assay buffer (100 mM NaH2PO4 pH 6.5, 100 mM NaCl) for 10 min at 37° C. The reaction was initiated upon addition of 25 μM substrate (Boc-Val-Leu-Lys-AMC (Bachem)).

Cathepsin-L = Cathepsin-L (Homo sapiens, UniProt P07711); assay: Cathepsin-L enzymatic assay (specificity); assay type: biochemical
Method: as §1, §2
Cathepsin-L—100 nM enzyme was pre-incubated with inhibitor in assay buffer (100 mM Sodium Acetate pH 5.5, 1 mM EDTA) for 10 min at 37° C. The reaction was initiated upon addition of 25 μM substrate (D-Val-Leu-Lys-AMC (Bachem)).

CYP2D6, sequence (P10635 whole entry): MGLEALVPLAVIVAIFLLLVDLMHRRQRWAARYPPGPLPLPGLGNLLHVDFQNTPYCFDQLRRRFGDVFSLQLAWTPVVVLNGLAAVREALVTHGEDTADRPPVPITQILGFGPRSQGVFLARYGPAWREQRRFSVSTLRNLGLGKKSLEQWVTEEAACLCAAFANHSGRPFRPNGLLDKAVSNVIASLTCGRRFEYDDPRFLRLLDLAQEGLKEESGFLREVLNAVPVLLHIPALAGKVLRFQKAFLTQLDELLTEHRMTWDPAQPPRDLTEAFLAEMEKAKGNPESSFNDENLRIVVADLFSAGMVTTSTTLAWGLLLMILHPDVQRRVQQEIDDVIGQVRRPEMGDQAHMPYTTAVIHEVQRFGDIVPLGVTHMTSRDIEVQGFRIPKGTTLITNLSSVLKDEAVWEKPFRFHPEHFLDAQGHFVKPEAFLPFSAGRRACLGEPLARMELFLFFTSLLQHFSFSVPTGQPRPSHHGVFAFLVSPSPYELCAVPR
CYP3A4, sequence (P08684 whole entry): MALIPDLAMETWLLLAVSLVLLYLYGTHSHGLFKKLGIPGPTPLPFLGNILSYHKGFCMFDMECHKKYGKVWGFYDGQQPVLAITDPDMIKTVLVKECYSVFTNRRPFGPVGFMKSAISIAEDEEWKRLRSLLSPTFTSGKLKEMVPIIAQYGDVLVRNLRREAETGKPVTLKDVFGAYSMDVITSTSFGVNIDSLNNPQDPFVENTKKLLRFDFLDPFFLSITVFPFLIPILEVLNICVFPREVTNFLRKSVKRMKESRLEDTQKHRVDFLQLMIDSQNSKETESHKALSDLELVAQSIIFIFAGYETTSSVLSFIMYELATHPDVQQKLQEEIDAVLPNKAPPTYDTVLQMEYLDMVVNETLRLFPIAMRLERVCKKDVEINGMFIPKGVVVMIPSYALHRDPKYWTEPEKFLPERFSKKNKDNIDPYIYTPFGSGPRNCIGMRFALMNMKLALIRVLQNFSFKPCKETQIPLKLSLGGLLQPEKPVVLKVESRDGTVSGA
CYP2C9, sequence (P11712 whole entry): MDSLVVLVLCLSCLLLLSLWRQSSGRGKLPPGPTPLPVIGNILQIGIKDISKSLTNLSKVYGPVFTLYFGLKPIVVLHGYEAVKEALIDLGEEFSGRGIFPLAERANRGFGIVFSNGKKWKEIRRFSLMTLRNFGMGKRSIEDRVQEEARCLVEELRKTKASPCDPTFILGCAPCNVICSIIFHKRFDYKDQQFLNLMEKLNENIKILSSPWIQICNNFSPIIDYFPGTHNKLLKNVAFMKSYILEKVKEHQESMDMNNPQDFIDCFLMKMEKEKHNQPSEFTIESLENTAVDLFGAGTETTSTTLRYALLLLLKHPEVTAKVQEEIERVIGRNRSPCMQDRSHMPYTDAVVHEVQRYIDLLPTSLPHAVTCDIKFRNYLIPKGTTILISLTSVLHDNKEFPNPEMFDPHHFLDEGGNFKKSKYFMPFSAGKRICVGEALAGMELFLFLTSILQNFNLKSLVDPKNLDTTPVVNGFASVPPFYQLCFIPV
CYP2C19, sequence (P33261 whole entry): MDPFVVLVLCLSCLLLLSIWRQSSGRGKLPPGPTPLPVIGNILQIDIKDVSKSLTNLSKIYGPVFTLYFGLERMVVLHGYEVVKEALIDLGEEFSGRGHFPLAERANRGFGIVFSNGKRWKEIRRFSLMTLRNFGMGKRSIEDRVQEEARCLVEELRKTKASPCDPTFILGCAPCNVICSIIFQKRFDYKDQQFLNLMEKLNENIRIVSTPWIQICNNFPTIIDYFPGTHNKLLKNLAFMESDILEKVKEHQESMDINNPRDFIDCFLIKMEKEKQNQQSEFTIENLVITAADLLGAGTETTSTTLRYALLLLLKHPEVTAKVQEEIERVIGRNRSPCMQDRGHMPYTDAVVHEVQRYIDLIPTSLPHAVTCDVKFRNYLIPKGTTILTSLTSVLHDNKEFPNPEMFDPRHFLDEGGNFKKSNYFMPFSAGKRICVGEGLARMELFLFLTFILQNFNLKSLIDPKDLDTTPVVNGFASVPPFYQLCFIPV
T4 sequence (P42574 29-175 limits assumed, species assumed): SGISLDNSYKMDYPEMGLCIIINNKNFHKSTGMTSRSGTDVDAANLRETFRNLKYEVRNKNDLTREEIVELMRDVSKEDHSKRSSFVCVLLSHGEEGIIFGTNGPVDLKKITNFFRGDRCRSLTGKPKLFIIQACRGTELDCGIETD
T4 sequence (P42574 176-277 limits assumed, species assumed): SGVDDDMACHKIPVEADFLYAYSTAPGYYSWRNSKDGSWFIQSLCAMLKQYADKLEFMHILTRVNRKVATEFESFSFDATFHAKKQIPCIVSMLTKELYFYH
T6 sequence (Q14790 217-374 limits assumed, species assumed): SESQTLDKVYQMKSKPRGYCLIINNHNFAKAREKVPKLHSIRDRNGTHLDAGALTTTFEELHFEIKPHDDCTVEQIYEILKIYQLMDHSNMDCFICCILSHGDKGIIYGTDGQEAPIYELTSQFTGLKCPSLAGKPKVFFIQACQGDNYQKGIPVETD
T6 sequence (Q14790 385-479 limits assumed, species assumed): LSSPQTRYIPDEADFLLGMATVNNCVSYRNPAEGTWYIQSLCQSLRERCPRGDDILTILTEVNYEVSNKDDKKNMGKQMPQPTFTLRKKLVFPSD
T7 sequence (P25774 115-331): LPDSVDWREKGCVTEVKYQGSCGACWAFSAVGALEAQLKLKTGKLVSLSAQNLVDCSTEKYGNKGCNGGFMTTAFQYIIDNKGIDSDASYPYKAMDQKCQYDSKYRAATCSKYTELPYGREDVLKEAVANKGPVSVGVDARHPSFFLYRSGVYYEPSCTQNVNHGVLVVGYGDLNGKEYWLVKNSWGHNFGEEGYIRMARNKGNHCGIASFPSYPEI
Cathepsin-L, sequence (P07711 114-333, species assumed): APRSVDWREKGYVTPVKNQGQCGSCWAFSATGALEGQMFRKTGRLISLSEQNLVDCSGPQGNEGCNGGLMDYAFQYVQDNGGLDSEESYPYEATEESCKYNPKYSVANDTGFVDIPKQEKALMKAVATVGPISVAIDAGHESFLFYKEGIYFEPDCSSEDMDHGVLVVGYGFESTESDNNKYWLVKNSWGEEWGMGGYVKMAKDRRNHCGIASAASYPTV

Structure (SMILES)	CYP inhibition, CYP3A-Testosterone (CYP3A; test concentration 3 μM)	CYP inhibition, CYP3A-Testosterone (CYP3A; test concentration 10 μM)	CYP inhibition, CYP2C19 (CYP2C19; test concentration 3 μM)	CYP inhibition, CYP2C19 (CYP2C19; test concentration 10 μM)	CYP inhibition, CYP1A2 (CYP1A2; test concentration 3 μM)	CYP inhibition, CYP1A2 (CYP1A2; test concentration 10 μM)	CYP inhibition, CYP3A4-Midazolam (CYP3A4; test concentration 3 μM)	CYP inhibition, CYP3A4-Midazolam (CYP3A4; test concentration 10 μM)	CYP inhibition, CYP2C9 (CYP2C9; test concentration 3 μM)	CYP inhibition, CYP2C9 (CYP2C9; test concentration 10 μM)	cleavage of APP after OGD ([2]; 0.1 μM compound)	A -> B Papp (Caco-2 monolayer; Caco-2)	B -> A Papp (Caco-2 monolayer; Caco-2)	CYP inhibition, CYP2D6 (CYP2D6; test concentration 3 μM)	CYP inhibition, CYP2D6 (CYP2D6; test concentration 10 μM)	also measured
N#CSc1cnc(N)s1 [Compound 10]	–	–	–	–	–	–	–	–	–	–	–	–	–	–	–	IC50 in intact Pala cells [1]: slightly larger IC50 values; AEP activity after addition of reducing agent (reversibility) (AEP): regained a substantial amount of activity; dose dependence of APP cleavage after OGD [2]: dose-dependent decrease; cleavage of APP after OGD ([2]; 1 μM compound): blocked
COc1ccc(N2CCN(C(c3ccc(N(C)C)cc3)c3nnnn3C(C)(C)C)CC2)cc1 (stereo not shown) [Compound 31]	2.5%	0.7%	37.7%	55.7%	13.5%	10.3%	−0.9%	18.1%	47.8%	69.2%	blocked	19.3 10^−6 cm · s^−1	17.4 10^−6 cm · s^−1	9.9%	1.4%	Pe [3]: <LLOQ; Mean Remaining Parent (NADPH-free) [4]: 86%; Mean Remaining Parent (with NADPH) [4]: 16%; Caco-2 permeability (in words) (Caco-2 monolayer): highly permeable; RE (Caco-2 monolayer; Caco-2): 0.9; Mean Remaining Parent (NADPH-free) [5]: 75%; Mean Remaining Parent (with NADPH) ([5]; 30 min of incubation): 12%
CCN(CC)c1ccc(CN2CCc3nc(C)[nH]c(=O)c3C2)c(OC)c1 [Compound 64]	1.5%	−0.1%	31.6%	20.4%	23.7%	22.2%	0.6%	10.1%	4.6%	7.9%	blocked	<LLOQ	<LLOQ	34.6%	58.3%	selectivity for AEP over Caspase-3 (Caspase-3): about 6 fold; IC50 (purified human AEP): 2370 nM; selectivity for AEP over Caspase-8 (Caspase-8): over 40 fold; selectivity for AEP over Cathepsin-S (Cathepsin-S): over 40 fold; selectivity for AEP over Cathepsin-L (Cathepsin-L): over 40 fold
